Laboratory results published in patent publication US8835440B2, “Cyclic pyrimidin-4-carboxamides as CCR2 receptor antagonists for treatment of inflammation, asthma and COPD” (Boehringer Ingelheim International GmbH, priority 2008, dated 2014).

Biological target: T1, CCR2 (Homo sapiens, UniProt P41597)
T1 construct: Membranes were prepared from THP-1 cells; endogenous in cells; host or cells: THP-1 cells (membrane preparation)
T1 sequence (P41597 1-360 isoform P41597-2): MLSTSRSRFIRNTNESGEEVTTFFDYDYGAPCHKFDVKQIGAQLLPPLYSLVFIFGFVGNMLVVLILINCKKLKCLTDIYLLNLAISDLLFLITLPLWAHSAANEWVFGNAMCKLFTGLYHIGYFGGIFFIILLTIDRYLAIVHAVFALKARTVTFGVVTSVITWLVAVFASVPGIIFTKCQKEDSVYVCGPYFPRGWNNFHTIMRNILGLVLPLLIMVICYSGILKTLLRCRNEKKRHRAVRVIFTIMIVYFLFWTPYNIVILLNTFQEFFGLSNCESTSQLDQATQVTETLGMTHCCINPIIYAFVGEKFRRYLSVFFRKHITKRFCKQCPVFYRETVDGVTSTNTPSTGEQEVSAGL
Assay: CCR2 receptor membrane binding assay ([125I]MCP-1, THP-1 cell membranes, SPA beads)
Conditions: for Ki: dissociation constant hKi, [125I]MCP-1 binding to THP-1 membranes; for remaining activity at 10 µM: @ 10 μM test compound, THP-1 membranes, read-out: CCR2 % ctrl @ 10 μM
Method in brief: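 hKi was derived by iterative law-of-mass-action fitting of scintillation counts read at 8 h. Compound (1% DMSO final) competed with ca. 25000 cpm [125I]MCP-1 for THP-1 membranes bound to WGA-PVT beads. Buffer: 25 mM HEPES pH 7.2, 5 mM MgCl2, 0.5 mM CaCl2, 0.2% BSA.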

Ki [nM] | remaining activity at 10 µM [%] | Structure (SMILES)
15 |  | Cc1c(NCC2CCCC(C(C)C)C2)ncnc1C(=O)N1CCC(N2CCC(N(C)S(C)(=O)=O)CC2)CC1 (centres unmarked) [Example 159zb]
43 | 3 | CCN(C1CCN(C2CCN(C(=O)c3ncnc(NCc4ccc(Cl)c(Cl)c4)c3C)CC2)CC1)S(C)(=O)=O [Example 160]
2000 | 30 | Cc1c(NCc2ccc(C(C)(C)C)cc2)ncnc1C(=O)N1CCCC(N2CCC(N(C)S(C)(=O)=O)CC2)CC1 (centres unmarked) [Example 161]
3800 | 43 | Cc1c(NCc2ccc(C(C)(C)C)cc2)ncnc1C(=O)N1CCCC(N2CCOCC2)CC1 (centres unmarked) [Example 162]
1560 | 32 | Cc1c(NCc2ccc(C(C)(C)C)cc2)ncnc1C(=O)N1CCCC(N2CCCC2)CC1 (centres unmarked) [Example 163]
353 | 15 | Cc1c(NCCc2ccc(Cl)c(Cl)c2)ncnc1C(=O)N1CCC(N2CCC(F)(F)CC2)CC1 [Example 164]
222 | 15 | Cc1c(NCCc2ccc(Cl)c(Cl)c2)ncnc1C(=O)N1CCC(N2CC[C@@H](O)C2)CC1 [Example 165]
227 | 16 | Cc1c(NCCc2ccc(Cl)c(Cl)c2)ncnc1C(=O)N1CCC(N2CC[C@H](O)C2)CC1 [Example 166]
246 | 16 | Cc1c(NCCc2ccc(Cl)c(Cl)c2)ncnc1C(=O)N1CCC(N2CCC(F)CC2)CC1 [Example 167]
51 | 9 | Cc1c(NCCc2ccc(Cl)c(Cl)c2)ncnc1C(=O)N1CCC(N2CCC(NS(C)(=O)=O)CC2)CC1 [Example 168]
2290 | 54 | Cc1c(NCCc2ccc(Cl)c(Cl)c2)ncnc1C(=O)N1CCC(N2CCC[C@H](NS(C)(=O)=O)C2)CC1 [Example 169]
705 | 31 | Cc1c(NCCc2ccc(Cl)c(Cl)c2)ncnc1C(=O)N1CCC(N2CCC(NC(=O)C(C)C)CC2)CC1 [Example 170]
356 | 16 | CC(=O)NC1CCN(C2CCN(C(=O)c3ncnc(NCCc4ccc(Cl)c(Cl)c4)c3C)CC2)CC1 [Example 171]
736 | 28 | Cc1c(NCCc2ccc(Cl)c(Cl)c2)ncnc1C(=O)N1CCC(N2CCC(C(N)=O)CC2)CC1 [Example 172]
89 | 6 | CNC(=O)C1CCN(C2CCN(C(=O)c3ncnc(NCCc4ccc(Cl)c(Cl)c4)c3C)CC2)CC1 [Example 173]
2720 | 53 | Cc1c(NCCc2ccc(Cl)c(Cl)c2)ncnc1C(=O)N1CCC(N2CCC[C@@H](NS(C)(=O)=O)C2)CC1 [Example 174]
434 | 14 | Cc1c(NCCc2ccc(Cl)c(Cl)c2)ncnc1C(=O)N1CCC(N2CCC[C@H](C(N)=O)C2)CC1 [Example 175]
648 | 31 | CNC(=O)[C@H]1CCCN(C2CCN(C(=O)c3ncnc(NCCc4ccc(Cl)c(Cl)c4)c3C)CC2)C1 [Example 176]
1250 | 43 | Cc1c(NCCc2ccc(Cl)c(Cl)c2)ncnc1C(=O)N1CCC(N2CCC[C@H](C(=O)N(C)C)C2)CC1 [Example 177]
27 | 0 | CCN(C1CCN(C2CCN(C(=O)c3ncnc(NCCc4ccc(Cl)c(Cl)c4)c3C)CC2)CC1)S(C)(=O)=O [Example 178]
1640 | 42 | Cc1c(NCCc2ccc(Cl)c(Cl)c2)ncnc1C(=O)N1CCC(N2CCC[C@H](C(=O)O)C2)CC1 [Example 179]

Ki [nM] | remaining activity at 10 µM [%] | Structure (SMILES)
4810 | 60 | Cc1c(NCc2ccc(Cl)c(Cl)c2)ncnc1C(=O)N1CCC(N(C)CC2(C)COC2)CC1 [Example 180]
3610 | 58 | COCCN(C)C1CCN(C(=O)c2ncnc(NCc3ccc(Cl)c(Cl)c3)c2C)CC1 [Example 181]
2990 | 53 | Cc1c(NCc2ccc(Cl)c(Cl)c2)ncnc1C(=O)N1CCC(N(C)CC#N)CC1 [Example 182]
426 | 45 | Cc1c(NCc2ccc(Cl)c(Cl)c2)ncnc1C(=O)N1CCC(N2Cc3ccccc3C2)CC1 [Example 183]
908 | 30 | Cc1c(NCc2ccc(Cl)c(Cl)c2)ncnc1C(=O)N1CCC(N2CCC(C(F)(F)F)CC2)CC1 [Example 184]
4210 | 53 | CO[C@H]1CN(C2CCN(C(=O)c3ncnc(NCc4ccc(Cl)c(Cl)c4)c3C)CC2)CC[C@H]1NS(C)(=O)=O [Example 185]
78 | 8 | CNC(=O)C1CCN(C2CCN(C(=O)c3ncnc(NCc4ccc(Cl)c(Cl)c4)c3C)CC2)CC1 [Example 186]
256 | 15 | Cc1c(NCc2ccc(Cl)c(Cl)c2)ncnc1C(=O)N1CCC(N2CCC(NC(N)=O)CC2)CC1 [Example 187]
3930 | 53 | Cc1c(NCc2ccc(Cl)c(Cl)c2)ncnc1C(=O)N1CCC(N2CCC3(CC2)CCN(S(C)(=O)=O)C3)CC1 [Example 188]
170 | 13 | Cc1c(NCc2ccc(Cl)c(Cl)c2)ncnc1C(=O)N1CCC(N2CCC(N3CCCS3(=O)=O)CC2)CC1 [Example 189]
783 | 27 | Cc1c(NCc2ccc(Cl)c(Cl)c2)ncnc1C(=O)N1CCC(N2CCC3(CCNC3=O)CC2)CC1 [Example 190]
519 | 20 | CO[C@@H]1CN(C2CCN(C(=O)c3ncnc(NCc4ccc(Cl)c(Cl)c4)c3C)CC2)CC[C@H]1NS(C)(=O)=O [Example 191]
1450 | 37 | Cc1c(NCc2ccc(Cl)c(Cl)c2)ncnc1C(=O)N1CCC(N2CCC(N3CCCC3=O)CC2)CC1 [Example 192]
1540 | 35 | CNC(=O)C1CN(C2CCN(C(=O)c3ncnc(NCc4ccc(Cl)c(Cl)c4)c3C)CC2)C1 [Example 193]
491 | 25 | CC(=O)N(C)C1CCN(C2CCN(C(=O)c3ncnc(NCc4ccc(Cl)c(Cl)c4)c3C)CC2)CC1 [Example 194]
141 | 14 | CCS(=O)(=O)NC1CCN(C2CCN(C(=O)c3ncnc(NCc4ccc(Cl)c(Cl)c4)c3C)CC2)CC1 [Example 195]
666 | 19 | Cc1c(NCc2ccc(C(C)(C)C)cc2)ncnc1C(=O)N1CCC(N2CCC(S(=O)(=O)N(C)C)CC2)CC1 [Example 196]
33 | 4 | Cc1c(NCc2ccc(Cl)c(Cl)c2)ncnc1C(=O)N1CCC(N2CCC(NS(=O)(=O)C(C)C)CC2)CC1 [Example 197]
58 | 1 | CCOC1CCN(C2CCN(C(=O)c3ncnc(NCc4ccc(C(C)(C)C)cc4)c3C)CC2)CC1 [Example 198]
534 | 9 | Cc1c(NCc2ccc(C(C)(C)C)cc2)ncnc1C(=O)N1CCC(N2CCC(CNS(C)(=O)=O)CC2)CC1 [Example 199]
108 | 5 | Cc1c(NCc2ccc(C(C)(C)C)cc2)ncnc1C(=O)N1CCC(N2CCC(C(C)(C)C)CC2)CC1 [Example 200]
